Here are results for twelve molecules from ChEMBL document CHEMBL2406908, “Re-engineering of the duocarmycin structural architecture enables bioprecursor development targeting CYP1A1 and CYP2W1 for biological activity” (J Med Chem, 2013).

Series [1] can be described thus: Antiproliferative activity against human EJ138 cells treated with extract obtained from 1 hr incubation of compound with CYP1A1 bactosome measured after 96 hrs by MTT assay. The class given is functional, cell-based. Background: Formazan colour is commonly taken as a measure of viable cells.
Series [2] in a line: Potentiation factor, ratio of IC50 for human EJ138 cells treated with extract obtained from 1 hr incubation of compound with control bactosome to IC50 of human EJ138 treated with extract obtained from 1 hr incubation of compound with CYP1A2 bactosome. It is filed as functional.
Series [3] can be described thus: Potentiation factor, ratio of IC50 for human EJ138 cells treated with extract obtained from 1 hr incubation of compound with control bactosome to IC50 of human EJ138 treated with extract obtained from 1 hr incubation of compound with CYP3A4 bactosome. It is filed as functional.
Series [4] in a line: Potentiation factor, ratio of IC50 for human EJ138 cells treated with extract obtained from 1 hr incubation of compound with control bactosome to IC50 of human EJ138 treated with extract obtained from 1 hr incubation of compound with CYP1B1 bactosome. It is filed as functional.
Series [5] can be described thus: Antiproliferative activity against human EJ138 cells treated with extract obtained from 1 hr incubation of compound with CYP1B1 bactosome measured after 96 hrs by MTT assay. It is filed as functional, cell-based.
For series [6], the system named is CHO. The series is described as follows: Antiproliferative activity against CHO cells assessed as growth inhibition after 96 hrs by MTT assay. The class given is cell-based. The note with it: Cricetulus griseus.
A short description of series [7]: Antiproliferative activity against human EJ138 cells after 96 hrs by MTT assay. The class given is functional, cell-based. The note with it: EJ138, 96 h.
Series [8] in a line: Antiproliferative activity against human EJ138 cells treated with extract obtained from 1 hr incubation of compound with CYP2D6 bactosome measured after 96 hrs by MTT assay. It is filed as functional, cell-based.
The test system of series [9] is RT-112. Nature of the series: Antiproliferative activity against human RT112 cells expressing CYP1A1 assessed as growth inhibition after 96 hrs by MTT assay. The class given is functional, cell-based. The following applies: RT-112, 96 h.
A further series concerns Liver. Nature of the series: Drug metabolism in mouse liver homogenate at 100 uM up tp 120 mins by LC/MS analysis. It is filed as ADME, tissue-based. The note with it: tissue homogenate, 2 h.
Series [10] is described as follows: Antiproliferative activity against human EJ138 cells treated with extract obtained from 1 hr incubation of compound with control bactosome measured after 96 hrs by MTT assay. It is filed as functional, cell-based.
Series [11] deals with HEK293. Nature of the series: Antiproliferative activity against human HEK293 cells expressing CYP2W1 assessed as growth inhibition after 96 hrs by MTT assay. It is filed as functional, cell-based. The following applies: HEK293, 96 h.
The nature of series [12]: Antiproliferative activity against human EJ138 cells treated with extract obtained from 1 hr incubation of compound with CYP3A4 bactosome measured after 96 hrs by MTT assay. The class given is functional, cell-based.
Series [13] deals with CHO. Nature of the series: Antiproliferative activity against CHO cells expressing CYP1A1 assessed as growth inhibition after 96 hrs by MTT assay. The note with it: Cricetulus griseus. The class given is functional, cell-based.
A short description of series [14]: Antiproliferative activity against human EJ138 cells treated with extract obtained from 1 hr incubation of compound with CYP1A2 bactosome measured after 96 hrs by MTT assay. It is filed as functional, cell-based.
Series [15] in a line: Drug metabolism in mouse liver microsomes at 100 uM after 2 hrs by HPLC/mass spectrometry analysis in presence of NADPH. It is filed as ADME, Microsome. (In general: Microsomes from liver hold many membrane-bound enzymes, among them those of drug oxidation.)
Series [16] can be described thus: Potentiation factor, ratio of IC50 for human EJ138 cells treated with extract obtained from 1 hr incubation of compound with control bactosome to IC50 of human EJ138 treated with extract obtained from 1 hr incubation of compound with CYP1A1 bactosome. It is filed as functional.
Series [17] is described as follows: Potentiation factor, ratio of IC50 for human EJ138 cells treated with extract obtained from 1 hr incubation of compound with control bactosome to IC50 of human EJ138 treated with extract obtained from 1 hr incubation of compound with CYP2D6 bactosome. It is filed as functional.
Series [18] has as its system CYP1A1. The series is described as follows: Potentiation factor, ratio of IC50 for wild type CHO cells to IC50 of CHO cells expressing CYP1A1. The class given is ADME, cell-based, Cricetulus griseus. The following applies: chinese hamster, wild type CHO cells and CHO cells expressing CYP1A1; read-out: Ratio IC50.
Series [19] has as its system CYP1A1. Nature of the series: Potentiation factor, ratio of IC50 for wild type HEK293 cells to IC50 of HEK293 cells expressing CYP1A1. It is filed as ADME, cell-based. The note with it: human, wild type HEK293 cells and HEK293 cells expressing CYP1A1; read-out: Ratio IC50.
For series [20], the system named is HEK293. The series is described as follows: Antiproliferative activity against human HEK293 cells assessed as growth inhibition after 96 hrs by MTT assay. It is filed as cell-based. The following applies: HEK293, 96 h.
The subject of series [21] is RT-112. Nature of the series: Induction of cell death in human RT112 cells after 48 hrs at 0.5 to 5 uM by trypan blue assay. The class given is functional, cell-based.
Series [22] has as its system HEK293. The series is described as follows: Induction of cell death in human HEK293 cells expressing CYP2W1 t 0.5 to 5 uM after 48 hrs by trypan blue assay. The class given is functional, cell-based.
Series [23] has as its system HEK293. Nature of the series: Induction of cell death in mock-transfected human HEK293 cells t 0.5 to 5 uM after 48 hrs by trypan blue assay. The note with it: hek293, 48 h. The class given is cell-based.
Series [24] concerns RT-112. The series is described as follows: Induction of DNA damage in human RT112 cells assessed as phosphorylation of gammaH2A.X at 0.5 to 5 uM after 48 hrs by Western blotting analysis. It is filed as functional, cell-based.
Series [25] relates to HEK293. The series is described as follows: Induction of DNA damage in mock-transfected human HEK293 assessed as phosphorylation of gammaH2A.X at 0.5 to 5 uM after 48 hrs by Western blotting analysis. The note with it: hek293, 48 h. It is filed as cell-based. A general note: In western blotting, separated proteins are transferred to a membrane and probed.
Series [26] has as its system HEK293. The series is described as follows: Induction of DNA damage in human HEK293 cells expressing CYP2W1 assessed as phosphorylation of gammaH2A.X at 0.5 to 5 uM after 48 hrs by Western blotting analysis. It is filed as functional, cell-based.

The structures appear in SMILES notation. pIC50: −log10 of the molar value. Activity calls are given as the source filed them. The calls are words filed in the database; no cut-off is given here.

With `COc1ccc2[nH]c(C(=O)N3CC(CCl)c4c3ccc3ccccc43)cc2c1` (stereo not drawn), the pIC50 – broadly, the negative decadic logarithm of the IC50, by convention in mol/L – in [1] is 7.70; in series [5] it was 5.82; with CHO [6], under 4.30; in series [7] it was 5.54; in series [8] it was 5.60; with RT-112 [9] it was under 4.30. Further, the pIC50 in series [10] is 5.70; in the series on HEK293 [11], under 4.30; in series [12] it was 5.98; with CHO [13], 6.02; in series [14], 5.65. The “Ratio IC50” value was found to be 0.9 in series [2]; 1.91 in series [3]; 1.3 in [4]; 100 in series [16]; 0.79 in series [17]. Further, the Drug metabolism entry (with Liver; in series [15]) was “Active” each time.
`COc1ccc2[nH]c(C(=O)N3CC(CCl)c4c3cc(O)c3ccccc43)cc2c1` (stereo not drawn): the pIC50 is 3.71 in the series on CHO [6], 3.82 in the series on RT-112 [9], 3.19 in the series on HEK293 [11] and 3.99 with CHO [13]. The selectivity ratio amounted to 1.9 with CYP1A1 [18] and 0.2 in the series with CYP1A1 [19].
`O=C(c1cc2cc(F)cc(F)c2[nH]1)N1CC(CCl)c2c1ccc1[nH]ccc21` (stereo not drawn): the pIC50 with CHO [6] was 4.68; in the series with RT-112 [9] it was 4.91; in the series with HEK293 [11] it was 5.04; with CHO [13] it was under 6.00. Further, the selectivity ratio in the series with CYP1A1 [18] is under 21; with CYP1A1 [19] it was 1.1.
`O=C(c1cc2cc(Cl)ccc2[nH]1)N1CC(CCl)c2c1ccc1[nH]ccc21` (stereo not drawn): the pIC50 with CHO [6] is 4.63; in the series with RT-112 [9] it was 6.15; in the series on HEK293 [11], 6.52; in the series with CHO [13] it was over 9.00. For the same molecule, the figures for the selectivity ratio with CYP1A1 [18] and in the series with CYP1A1 [19] were over 23200 and 41.7, respectively.
As for `COc1ccc2[nH]c(C(=O)N3CC(CCl)c4c3cc(O)c3[nH]ccc43)cc2c1` (stereo not drawn), the pIC50 with HEK293 [20] was 9.34; with CHO [6], 9.78; in the series with RT-112 [9], 9.90; in the series with HEK293 [11] it was 9.42; with CHO [13] it was 9.20. Further, the selectivity ratio in the series on CYP1A1 [18] was determined as 0.2; with CYP1A1 [19], 1.2.
As to `O=C(c1cc2cc(F)ccc2[nH]1)N1CC(CCl)c2c1ccc1[nH]ccc21` (stereo not drawn), the pIC50 with CHO [6] is 4.65; in the series with RT-112 [9], 4.95; in the series on HEK293 [11] it was 6.30; in the series with CHO [13] it was 7.05. Moreover, the selectivity ratio with CYP1A1 [18] amounted to 251; with CYP1A1 [19], 21.
Regarding `COc1ccc2[nH]c(C(=O)N3CC(CCl)c4c3ccc3[nH]ccc43)cc2c1` (stereo not drawn), the outcome in the series on RT-112 [21], in the series on HEK293 [22], in the series with RT-112 [24] and in the series on HEK293 [26] was Active. In addition, the Activity result with HEK293 [23] and with HEK293 [25] was “Non-toxic” in each case. Also, the pIC50 is 5.49 in the series with CHO [6], 6.70 with RT-112 [9], 6.22 in the series on HEK293 [11] and over 9.00 in the series with CHO [13]. Also, the selectivity ratio is over 3200 in the series on CYP1A1 [18] and 14.7 in the series on CYP1A1 [19].
Consider `O=C(c1cc2cc(F)c(F)cc2[nH]1)N1CC(CCl)c2c1ccc1[nH]ccc21` (stereo not drawn), for which the pIC50 was 4.74 in the series on CHO [6], 5.74 in the series with RT-112 [9], 5.43 in the series with HEK293 [11] and 6.64 in the series on CHO [13]. The selectivity ratio in the series with CYP1A1 [18] worked out at 80; in the series on CYP1A1 [19] it was 2.6.
As for `O=C(c1cc2cc(O)ccc2[nH]1)N1CC(CCl)c2c1ccc1[nH]ccc21` (stereo not drawn), the negative logarithm of the IC50 (pIC50) in the series on CHO [6] is 5.48; with RT-112 [9] it was 4.49; with HEK293 [11] it was 4.69; in the series on CHO [13], 6.52. The selectivity ratio was found to be 11 in the series on CYP1A1 [18] and 0.8 in the series with CYP1A1 [19].
For `COc1cc2cc(C(=O)N3CC(CCl)c4c3ccc3[nH]ccc43)[nH]c2c(OC)c1OC` (stereo not drawn), the outcome in the series with RT-112 [21], in the series with HEK293 [22], with RT-112 [24] and with HEK293 [26] was Active. Further, the Activity entry with HEK293 [23] and in the series on HEK293 [25] was “Non-toxic” throughout. Besides, the pIC50 is 5.12 in the series with CHO [6], 5.15 in the series with RT-112 [9], 4.95 with HEK293 [11] and 5.51 in the series on CHO [13]. Further, the selectivity ratio came to 2.4 with CYP1A1 [18] and 1.1 in the series on CYP1A1 [19].
In the case of `CS(=O)(=O)c1cc(F)cc2cc(C(=O)N3CC(CCl)c4c3ccc3[nH]ccc43)[nH]c12` (stereo not drawn), the pIC50 in the series with CHO [6] was 5.49; in the series on RT-112 [9] it was 5.11; in the series with HEK293 [11], 4.91; in the series on CHO [13], 5.39. The selectivity ratio in the series on CYP1A1 [18] was 0.8; with CYP1A1 [19] it was 0.9.
In the case of `COc1cc2cc(C(=O)N3CC(CCl)c4c3ccc3[nH]ccc43)[nH]c2cc1OC` (stereo not drawn), the outcome in the series on RT-112 [21], in the series with HEK293 [22], in the series with RT-112 [24] and with HEK293 [26] was Active. For the same molecule, the Activity entry with HEK293 [23] and with HEK293 [25] was “Non-toxic” in each case. Also, the pIC50 is 5.52 in the series with CHO [6], 6.52 in the series with RT-112 [9], 5.21 in the series on HEK293 [11] and over 9.00 with CHO [13]. The results for the selectivity ratio in the series with CYP1A1 [18] and with CYP1A1 [19] were over 3000 and 1.3, respectively.
